Laboratory results: ChEMBL document CHEMBL5344425, “Discovery of 5-(Pyrimidin-2-ylamino)-1H-indole-2-carboxamide Derivatives as Nur77 Modulators with Selective and Potent Activity Against Triple-Negative Breast Cancer” (J Med Chem, 2023)
Calls of active or inactive are those of the source. The rule behind the calls is not given here.

What was measured:
MDA-MB-231 [1] = assay: Induction of apoptosis in human MDA-MB-231 cells assessed as proportion of early apoptotic cells at 5 uM measured after 5 hrs by AnnexinV-FITC/PI staining based flow cytometry (reference value: 3.35%); type: functional
MDA-MB-231 [2] = assay: Antiproliferative activity against human MDA-MB-231 cells assessed as inhibition of cell growth measured after 24 hrs by MTT assay; type: functional, cell-based; details: MDA-MB-231, 24 h
MDA-MB-231 [3] = assay: Antitumor activity against human MDA-MB-231 cells xenografted in BALB/c mouse assessed as increase in cleaved caspase-3 expression in tumor at 10 mg/kg, ip qd for 16 days by immunohistochemical staining based analysis; type: functional, organism-based; details: time 16.0 day
MDA-MB-231 [4] = assay: Induction of apoptosis in human MDA-MB-231 cells assessed as proportion of late apoptotic cells at 1.25 uM measured after 5 hrs by AnnexinV-FITC/PI staining based flow cytometry (reference value: 2.55%); type: functional
[5] = Toxicity in BALB/c mouse xenografted with human MDA-MB-231 cells assessed as morphological changes in heart at 10 mg/kg, ip qd for 16 days by Hematoxylin-Eosin staining based analysis; type: organism-based; details: in vivo, 384 h, time 16 day
MDA-MB-231 [6] = assay: Induction of apoptosis in human MDA-MB-231 cells assessed as proportion of early apoptotic cells at 1.25 uM measured after 5 hrs by AnnexinV-FITC/PI staining based flow cytometry (reference value: 3.35%); type: functional
HepG2 = assay: Antiproliferative activity against human HepG2 cells assessed as inhibition of cell growth measured after 24 hrs by MTT assay; type: functional, cell-based; details: HepG2, 24 h
MDA-MB-231 [7] = assay: Induction of apoptosis in human MDA-MB-231 cells transfected with ctr siRNA assessed as late apoptotic cells at 1 uM measured after 6 hrs by AnnexinV-FITC/PI staining based flow cytometry (reference value: 3.97%); type: functional
[8] = Toxicity in BALB/c mouse xenografted with human MDA-MB-231 cells assessed as morphological changes in kidney at 10 mg/kg, ip qd for 16 days by Hematoxylin-Eosin staining based analysis; type: organism-based; details: in vivo, 384 h, time 16 day
Bel-7402 = assay: Antiproliferative activity against human Bel-7402 cells assessed as inhibition of cell growth measured after 24 hrs by MTT assay; type: functional, cell-based; details: Bel-7402, 24 h
[9] = Toxicity in BALB/c mouse xenografted with human MDA-MB-231 cells assessed as morphological changes in liver at 10 mg/kg, ip qd for 16 days by Hematoxylin-Eosin staining based analysis; type: organism-based; details: in vivo, 384 h, time 16 day
MDA-MB-231 [10] = assay: Induction of apoptosis in human MDA-MB-231 cells assessed as proportion of early apoptotic cells at 2.5 uM measured after 5 hrs by AnnexinV-FITC/PI staining based flow cytometry (reference value: 3.35%); type: functional
[11] = Selectivity index, ratio of IC50 for cytotoxicity against human MCF-10A cells to IC50 for antiproliferative activity against human MDA-MB-231 cells; type: toxicity, cell-based; details: MCF-10A cells versus MDA-MB-231 cells, read-out: Ratio IC50
HeLa = assay: Antiproliferative activity against human HeLa cells assessed as inhibition of cell growth measured after 24 hrs by MTT assay; type: functional, cell-based
MDA-MB-231 [12] = assay: Induction of apoptosis in human MDA-MB-231 cells assessed as increase in cleaved caspase-3 expression at 1 uM measured after 6 hrs by confocal microscopy; type: functional, cell-based
[13] = Selectivity index, ratio of IC50 for cytotoxicity against human MCF-10A cells to IC50 for antiproliferative activity against human MCF7 cells; type: toxicity, cell-based; details: MCF-10A cells versus MCF7 cells, read-out: Ratio IC50
MDA-MB-231 [14] = assay: Induction of apoptosis in human MDA-MB-231 cells assessed as PARP cleavage measured after 6 hrs by western blot analysis; type: functional, cell-based; details: dose 0.5-5 µM
[15] = target: Nuclear receptor subfamily 4immunitygroup A member 1 (Homo sapiens, UniProt P22736); assay: Antagonist activity at Nur77 ligand binding domain (unknown origin) transfected in HEK293T cells cotransfected with pG5-Luc assessed as inhibition of receptor transcriptional activity measured after 12 hrs by luciferase reporter gene assay; type: cell-based; details: filed as antagonist, dose 0.5-2 µM
Sequence of Nuclear receptor subfamily 4immunitygroup A member 1 (P22736 whole entry, the tested form may be a part): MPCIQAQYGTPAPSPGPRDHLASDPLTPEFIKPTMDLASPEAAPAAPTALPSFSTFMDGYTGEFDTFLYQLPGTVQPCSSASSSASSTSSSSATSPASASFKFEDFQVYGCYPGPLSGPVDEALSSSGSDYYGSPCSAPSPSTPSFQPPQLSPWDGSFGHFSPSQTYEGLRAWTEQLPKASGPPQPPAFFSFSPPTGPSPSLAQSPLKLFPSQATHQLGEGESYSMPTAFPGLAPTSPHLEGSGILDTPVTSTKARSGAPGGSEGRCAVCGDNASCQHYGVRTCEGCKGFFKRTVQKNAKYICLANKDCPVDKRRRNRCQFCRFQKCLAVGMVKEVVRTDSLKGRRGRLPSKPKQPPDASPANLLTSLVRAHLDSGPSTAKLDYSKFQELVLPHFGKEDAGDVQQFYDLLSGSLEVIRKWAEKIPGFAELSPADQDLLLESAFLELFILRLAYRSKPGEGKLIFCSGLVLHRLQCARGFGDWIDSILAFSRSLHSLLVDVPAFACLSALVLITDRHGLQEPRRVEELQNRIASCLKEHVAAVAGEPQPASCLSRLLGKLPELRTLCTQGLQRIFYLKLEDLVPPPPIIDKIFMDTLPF

MDA-MB-231 [16] = assay: Induction of apoptosis in human MDA-MB-231 cells transfected with Nur77 siRNA assessed as PARP cleavage at 0.5 to 2 uM measured after 6 hrs by western blot analysis; type: functional, cell-based; details: dose 0.5-2 µM
MDA-MB-231 [17] = assay: Induction of apoptosis in human MDA-MB-231 cells assessed as proportion of late apoptotic cells at 0.32 uM measured after 5 hrs by AnnexinV-FITC/PI staining based flow cytometry (reference value: 2.55%); type: functional
[18] = Toxicity in BALB/c mouse xenografted with human MDA-MB-231 cells assessed as morphological changes in lung at 10 mg/kg, ip qd for 16 days by Hematoxylin-Eosin staining based analysis; type: organism-based; details: in vivo, 384 h, time 16 day
MDA-MB-231 [19] = assay: Induction of apoptosis in human MDA-MB-231 cells transfected with ctr siRNA assessed as early apoptotic cells at 2 uM measured after 6 hrs by AnnexinV-FITC/PI staining based flow cytometry (reference value: 1.88%); type: functional
MDA-MB-231 [20] = assay: Induction of apoptosis in human MDA-MB-231 cells transfected with ctr siRNA assessed as early apoptotic cells at 1 uM measured after 6 hrs by AnnexinV-FITC/PI staining based flow cytometry (reference value: 1.88%); type: functional
[21] = target: T1, Peroxisome proliferator-activated receptor gamma (Homo sapiens) (UniProt P37231); assay: Antagonist activity at PPARgamma ligand binding domain (unknown origin) transfected in HEK293T cells cotransfected with pG5-Luc assessed as inhibition of receptor transcriptional activity at 2 uM measured after 12 hrs by luciferase reporter gene assay; type: cell-based
T1 sequence (whole entry): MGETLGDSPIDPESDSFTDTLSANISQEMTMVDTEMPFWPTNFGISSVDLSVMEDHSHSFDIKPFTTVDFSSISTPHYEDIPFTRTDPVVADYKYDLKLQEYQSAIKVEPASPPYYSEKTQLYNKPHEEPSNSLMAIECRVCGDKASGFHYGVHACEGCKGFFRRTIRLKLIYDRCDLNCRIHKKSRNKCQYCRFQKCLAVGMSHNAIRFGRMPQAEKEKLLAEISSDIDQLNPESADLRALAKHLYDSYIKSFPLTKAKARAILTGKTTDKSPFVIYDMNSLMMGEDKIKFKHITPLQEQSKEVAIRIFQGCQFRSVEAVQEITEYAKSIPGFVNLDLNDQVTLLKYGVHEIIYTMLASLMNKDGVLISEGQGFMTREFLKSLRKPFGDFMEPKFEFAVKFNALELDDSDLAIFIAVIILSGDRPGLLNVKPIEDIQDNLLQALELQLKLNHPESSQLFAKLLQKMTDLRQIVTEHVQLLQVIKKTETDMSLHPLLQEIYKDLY

MDA-MB-231 [22] = assay: Induction of apoptosis in human MDA-MB-231 cells transfected with Myc-Nur77 assessed as PARP cleavage at 1 to 2 uM measured after 6 hrs by western blot analysis; type: functional, cell-based; details: dose 1-2 µM
[23] = Toxicity in Zebra fish AB embryo assessed as induction of morphological abnormalities at 1.25 uM measured after 24 to 72 hrs; set-up: species or system Danio rerio; details: zebrafish, time 24-72 hrs

## CCN(CC)CCCNC(=O)c1cc2cc(Nc3nccc(-c4sc(NC)nc4C)n3)ccc2[nH]1
MDA-MB-231 [1]
  Activity: 52.78%
MDA-MB-231 [2]
  IC50: 0.4 µM
MDA-MB-231 [3]
  Activity: Active
MDA-MB-231 [4]
  Activity: 4.06%
[5]
  Activity: Non-Toxic
MDA-MB-231 [6]
  Activity: 35.95%
HepG2
  IC50: 53.7 µM
MDA-MB-231 [7]
  Activity: 8.23%
[8]
  Activity: Non-Toxic
Bel-7402
  IC50: 38.3 µM
[9]
  Activity: Non-Toxic
MDA-MB-231 [10]
  Activity: 38.14%
[11]
  selectivity ratio: 120
HeLa
  IC50: 1.99 µM
MDA-MB-231 [12]
  Activity: Active
[13]
  selectivity ratio: 66.7
MDA-MB-231 [14]
  Activity: Dose-Dependent Effect
[15]
  inhibition: Dose-Dependent Effect
MDA-MB-231 [16]
  Activity: inactive
MDA-MB-231 [17]
  Activity: 5.29%
[18]
  Activity: Non-Toxic
MDA-MB-231 [19]
  Activity: 19.23%
MDA-MB-231 [20]
  Activity: 11.24%
[21]
  inhibition: inactive
MDA-MB-231 [22]
  Activity: Active
[23]
  Activity: Toxic
